Measured values taken from PMC7356696, “Synthesis, Antimicrobial Activity and Molecular Docking of Novel Thiourea Derivatives Tagged with Thiadiazole, Imidazole and Triazine Moieties as Potential DNA Gyrase and Topoisomerase IV Inhibitors” (Molecules, 2020).
Values after ≈ are worked out from the molar mass of the structure shown. Where two headings read alike, the source gives them in different places.

How the values were obtained:
[1] = test system: Bacillus subtilis ATCC 6633; assay: Agar well diffusion, inhibition zone; type: cell-based; design: dose or concentration left out as unconfirmed; details: ATCC6633, B. subtilis ATCC 6633, NA = No Activity, read-out: Mean Diameter of Inhibition Zone (Mean ± SEM)
Text: (§1) The antimicrobial activity of all synthesized compounds 2–13 was screened against a panel of two Gram-positive bacteria (Staphylococcus aureus ATCC 29213 and Bacillus subtilis ATCC 6633), two Gram-negative bacteria (Escherichia coli ATCC 25922, Pseudomonas aeruginosa ATCC 27853) and two fungi (Candida albicans ATCC 10231 and Aspergillus flavus ATCC 46283) using the agar well diffusion method. Ciprofloxacin and clotrimazole were used as antibacterial and antifungal standards, respectively. The results of this study were recorded as the average diameter of the inhibition zones (IZ) in Table 1. […] Additionally, the promising activity against S. aureus was observed from compounds 9, 12 and 13, however against B. subtilis from compounds 12 and 13.
(§2) The antimicrobial assay was performed in vitro for the target compounds 2–13 against Staphylococcus aureus ATCC 29213, Bacillus subtilis ATCC 6633 as Gram-positive bacteria, Escherichia coli ATCC 25922, Pseudomonas aeruginosa ATCC 27853 as Gram-negative bacteria and Candida albicans ATCC 10231, Aspergillus flavus ATCC 46283 as fungi. At the first, 100 μL of the test bacteria/fungi were grown in 10 mL of fresh media until they reached a count of approximately 10^8 cells/ml for bacteria or 10^5 cells/mL for fungi. […] The plates were incubated for 24 h at 37 °C (for bacteria and yeast) and for 72 h at 27 °C (for filamentous fungi), each test was repeated three times. After incubation, the microorganism’s growth was observed. Ciprofloxacin and clotrimazole were used as standard antibacterial and antifungal drugs, respectively. The resulting inhibition zone diameters were measured in millimeters using the diffusion technique. […] The different concentrations (triplicate) of each compound were tested and compared with standard drugs.

[2] = test system: Staphylococcus aureus ATCC 29213; assay: Agar well diffusion, inhibition zone; type: cell-based; design: dose or concentration left out as unconfirmed; details: ATCC29213, S. aureus ATCC 29213, NA = No Activity, read-out: Mean Diameter of Inhibition Zone (Mean ± SEM)
Text: as §1, §2

[3] = test system: Escherichia coli ATCC 25922; assay: Agar well diffusion, inhibition zone; type: cell-based; design: dose or concentration left out as unconfirmed; details: ATCC25922, E. coli ATCC 25922, NA = No Activity, read-out: Mean Diameter of Inhibition Zone (Mean ± SEM)
Text: as §1
(§3) The antimicrobial assay was performed in vitro for the target compounds 2–13 against Staphylococcus aureus ATCC 29213, Bacillus subtilis ATCC 6633 as Gram-positive bacteria, Escherichia coli ATCC 25922, Pseudomonas aeruginosa ATCC 27853 as Gram-negative bacteria and Candida albicans ATCC 10231, Aspergillus flavus ATCC 46283 as fungi. At the first, 100 μL of the test bacteria/fungi were grown in 10 mL of fresh media until they reached a count of approximately 10^8 cells/ml for bacteria or 10^5 cells/mL for fungi. […] of each sample (at 0.5 mg/mL) was added to each well (10 mm diameter holes cut in the agar gel). The plates were incubated for 24 h at 37 °C (for bacteria and yeast) and for 72 h at 27 °C (for filamentous fungi), each test was repeated three times. After incubation, the microorganism’s growth was observed. Ciprofloxacin and clotrimazole were used as standard antibacterial and antifungal drugs, respectively. The resulting inhibition zone diameters were measured in millimeters using the diffusion technique. […] The different concentrations (triplicate) of each compound were tested and compared with standard drugs.

[4] = test system: Pseudomonas aeruginosa ATCC 27853; assay: Agar well diffusion, inhibition zone; type: cell-based; design: dose or concentration left out as unconfirmed; details: ATCC27853, P. aeruginosa ATCC 27853, NA = No Activity, read-out: Mean Diameter of Inhibition Zone (Mean ± SEM)
Text: as §1, §3

[5] = test system: Bacillus subtilis ATCC 6633; assay: MIC, modified agar well diffusion method; type: cell-based; details: ATCC6633, B. subtilis ATCC 6633, read-out: MIC (Mean ± SEM)
Text: as §1, §3

[6] = test system: Escherichia coli ATCC 25922; assay: MIC, modified agar well diffusion method; type: cell-based; details: ATCC25922, E. coli ATCC 25922, read-out: MIC (Mean ± SEM)
Text: as §1, §3

[7] = test system: Pseudomonas aeruginosa ATCC 27853; assay: MIC, modified agar well diffusion method; type: cell-based; details: ATCC27853, P. aeruginosa ATCC 27853, read-out: MIC (Mean ± SEM)
Text: as §1, §3

[8] = test system: Staphylococcus aureus ATCC 29213; assay: MIC, modified agar well diffusion method; type: cell-based; details: ATCC29213, S. aureus ATCC 29213, read-out: MIC (Mean ± SEM)
Text: as §1, §3

[9] = test system: Aspergillus flavus ATCC 46283; assay: Agar well diffusion, inhibition zone; type: cell-based; design: dose or concentration left out as unconfirmed; details: ATCC46283, A. flavus ATCC 46283, NA = No Activity, read-out: Mean Diameter of Inhibition Zone (Mean ± SEM)
Text: as §1, §3

[10] = test system: Candida albicans ATCC 10231; assay: Agar well diffusion, inhibition zone; type: cell-based; design: dose or concentration left out as unconfirmed; details: ATCC10231, C. albicans ATCC 10231, NA = No Activity, read-out: Mean Diameter of Inhibition Zone (Mean ± SEM)
Text: as §1, §3

[11] = test system: Aspergillus flavus ATCC 46283; assay: MIC, modified agar well diffusion method; type: cell-based; details: ATCC46283, A. flavus ATCC 46283, read-out: MIC (Mean ± SEM)
Text: as §1, §3

[12] = test system: Candida albicans ATCC 10231; assay: MIC, modified agar well diffusion method; type: cell-based; details: ATCC10231, C. albicans ATCC 10231, read-out: MIC (Mean ± SEM)
Text: as §1, §3

[13] = MTT assay for cytotoxic activity; type: cell-based; details: African green monkey, Vero cells (normal kidney epithelial cell line), read-out: IC50 (Mean ± SEM), cytotoxic activity
Text: (§4) The results are expressed as IC50 values (µM) and are depicted in Table 3.

[14] = test system: human breast cancer (MCF-7) cells; assay: MTT assay for cytotoxic activity; type: cell-based; details: read-out: IC50 (Mean ± SEM), cytotoxic activity
Text: as §4

[15] = test system: Staphylococcus aureus DNA gyrase; design: method as in PMID 25792505; details: cited from earlier work
[16] = target: T1, dihydrofolate reductase (DHFR) (Homo sapiens, UniProt P00374); design: method as in PMID 23792351; details: cited from earlier work
T1 construct: purchased Bio Vision
T1 sequence (P00374 1-187): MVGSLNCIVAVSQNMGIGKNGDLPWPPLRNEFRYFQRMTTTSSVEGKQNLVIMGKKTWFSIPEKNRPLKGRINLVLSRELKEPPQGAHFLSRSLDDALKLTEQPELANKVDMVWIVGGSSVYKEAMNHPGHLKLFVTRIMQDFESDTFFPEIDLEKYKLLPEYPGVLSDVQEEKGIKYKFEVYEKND

[17] = Homo sapiens, MCF7, MCF-7 cells

MIC [5] [µg/mL]	MIC [6] [µg/mL]	MIC [7] [µg/mL]	MIC [8] [µg/mL]	MIC [11] [µg/mL]	MIC [12] [µg/mL]	SMILES	zone of inhibition [1] [mm]	zone of inhibition [2] [mm]	zone of inhibition [3] [mm]	zone of inhibition [4] [mm]	zone of inhibition [9] [mm]	zone of inhibition [10] [mm]	IC50 [13] [µM]	IC50 [14, 17] [µM]	IC50 ([14]; MCF-7 cells) [µM]	IC50 [15] [µM]	fold more active than the positive control methotrexate as DHFR inhibitor [16] [fold]
2.9 ± 0.02 (≈ 8.75 µM)	2.9 ± 0.25 (≈ 8.75 µM)	2.9 ± 0.04 (≈ 8.75 µM)	5.85 ± 0.13 (≈ 17.7 µM)			O=C(O)c1cn(C2CC2)c2cc(N3CCNCC3)c(F)cc2c1=O [Ciprofloxacin, reference compound]	23 ± 0.2	24 ± 0.6	26 ± 0.25	23 ± 0.9							
				4.25 ± 0.05 (≈ 12.3 µM)	12.5 ± 0.15 (≈ 36.2 µM)	Clc1ccccc1C(c1ccccc1)(c1ccccc1)n1ccnc1 [Clotrimazole, reference compound]					25 ± 0.4	27 ± 0.21					
						CCOC(=O)CNC(=S)NC(=O)Cc1ccccc1 [Compound 2, Ethyl ((2-phenylacetyl)carbonothionyl)glycinate]		9 ± 0.61									
2.29 ± 0.05 (≈ 5.2 µM)	7.8 ± 0.1 (≈ 17.7 µM)	2.48 ± 0.11 (≈ 5.63 µM)	5.12 ± 0.05 (≈ 11.6 µM)	26.2 ± 0.03 (≈ 59.5 µM)	91 ± 0.02 (≈ 207 µM)	O=C(Cc1ccccc1)NC(=S)NN1C(=O)C(=Cc2ccccc2)N=C1c1ccccc1 [Compound 6, 1-(4-Benzylidene-4,5-dihydro-5-oxo-2-phenylimidazol-1-yl)-3-(2-phenylacetyl)thiourea]	30 ± 0.26	27 ± 0.2	12 ± 0.1	21 ± 0.26	9 ± 0.03	6 ± 0.22	122.8 ± 0.4	23.7 ± 0.96			
1.39 ± 0.5 (≈ 3.03 µM)	4.22 ± 0.12 (≈ 9.2 µM)	2.81 ± 0.01 (≈ 6.13 µM)	4.15 ± 0.22 (≈ 9.05 µM)	5.21 ± 0.11 (≈ 11.4 µM)	64 ± 0.41 (≈ 140 µM)	O=C(Cc1ccccc1)NC(=S)NNC(=O)C(=Cc1ccccc1)NC(=O)c1ccccc1 [Compound 7a, 1-(2-Benzamido-3-phenylacryloyl)-4-phenylacetylthiosemicarbazide]	33 ± 0.5	30 ± 0.22	18 ± 0.22	27 ± 0.03	24 ± 0.02	15 ± 0.3	149.1 ± 0.21	10.2 ± 0.65			
1.46 ± 0.1 (≈ 3.14 µM)	4.68 ± 0.13 (≈ 10.1 µM)	2.72 ± 0.15 (≈ 5.85 µM)	3.9 ± 0.26 (≈ 8.39 µM)	5.7 ± 0.01 (≈ 12.3 µM)	76 ± 0.31 (≈ 164 µM)	O=C(Cc1ccccc1)NC(=S)NNC(=O)C(=Cc1cccs1)NC(=O)c1ccccc1 [Compound 7b, 1-(2-Benzamido-3-(thiophen-2-yl)acryloyl)-4-phenylacetylthiosemicarbazide]	35 ± 0.26	33 ± 0.01	18 ± 0.41	26 ± 0.21	25 ± 0.15	16 ± 0.12	133.3 ± 0.4	11.6 ± 0.59	11.6 ± 0.59		
8.6 ± 0.25 (≈ 33.3 µM)		17.6 ± 0.2 (≈ 68.2 µM)	9.92 ± 0.3 (≈ 38.4 µM)	20.4 ± 0.3 (≈ 79.2 µM)	94 ± 0.1 (≈ 364 µM)	O=c1cc2nc(Cc3ccccc3)[nH]c(=S)n2[nH]1 [Compound 9, 2-Benzyl-3,4-dihydro-4-thioxopyrazolo[1,5-a][1,3,5]triazin-7(6H)-one]	18 ± 0.25	21 ± 0.3		9 ± 0.25	15 ± 0.33	9 ± 0.2	62.45 ± 0.2	26.4 ± 0.46			
						N#CCc1nnc(NC(=O)Cc2ccccc2)s1 [Compound 10, N-(5-(Cyanomethyl)-1,3,4-thiadiazol-2-yl)-2-phenylacetamide]	12 ± 0.21	15 ± 0.42		6 ± 0.02	6 ± 0.41						
						N=c1oc2ccccc2cc1-c1nnc(NC(=O)Cc2ccccc2)s1 [Compound 11, N-(5-(2-Imino-2H-chromen-3-yl)-1,3,4-thiadiazol-2-yl)-2-phenylacetamide]	6 ± 0.53	12 ± 0.3									
2.3 ± 0.05 (≈ 5.22 µM)	27 ± 0.02 (≈ 61.3 µM)	12.5 ± 0.2 (≈ 28.4 µM)	5.22 ± 0.03 (≈ 11.8 µM)	15.6 ± 0.01 (≈ 35.4 µM)	85 ± 0.15 (≈ 193 µM)	O=C(Cc1ccccc1)NC(=S)N1NC(=O)C(=Cc2ccccc2)N=C1c1ccccc1 [Compound 12, 5-Benzylidene-5,6-dihydro-N-(1-hydroxy-2-phenylethylidene)-6-oxo-3-phenyl-1,2,4-triazine-2(1H)-carbothioamide]	23 ± 0.01	22 ± 0.05	5 ± 0.58	17 ± 0.2	18 ± 0.03	14 ± 0.21	79.19 ± 0.28	35.9 ± 0.85			
2.72 ± 1.11 (≈ 6.09 µM)	33 (≈ 73.9 µM)	13.41 ± 0.1 (≈ 30 µM)	5.6 ± 0.15 (≈ 12.5 µM)	14.6 ± 0.2 (≈ 32.6 µM)	83 ± 0.22 (≈ 186 µM)	O=C(Cc1ccccc1)Nc1nnc(C(=Cc2cccs2)NC(=O)c2ccccc2)s1 [Compound 13, N-(1-(5-(2-Phenylacetamido)-1,3,4-thiadiazol-2-yl)-2-(thiophen-2-yl)vinyl)benzamide]	24 ± 1.11	21 ± 0.1	6 ± 0.15	15 ± 0.11	18 ± 0.22	12 ± 0.46	84.11 ± 0.32	37.7 ± 0.93			
						Cc1occc1C(=O)NNC(=S)NC(=O)c1ccccc1 [I]										14.6	
						COc1ccc(NC(=S)Nc2nc(-c3nnc(S)n3-c3ccc(OC)cc3OC)cs2)c(OC)c1 [V]											2.7
